Experimental data from patent publication US20250130239A1, “PROTEIN DEGRADER” (University of Dundee, priority 2021, published 2025).
Values joined by “and” are separate entries in the source; they are usually repeats but may differ in a detail not shown here. Equal values may be shown once.

What was measured:
[1] = biological target: T1, BromoTag-Brd2 (Homo sapiens, UniProt O60885+P40337, L387A); assay: Dose-response degradation assay (western blot, 6 h) in heterozygous BromoTag-Brd2 HEK293 cells; assay type: cell-based
T1 construct: comprising residues 368-440 of human Brd4; Brd2 (endogenous protein, fusion partner in the same polypeptide); eGFP-P2A (upstream marker in the knock-in cassette) (N, cleaved yes); expressed in transfected cells; host or cells: HEK293, heterozygous CRISPR knock-in at the endogenous BRD2 locus
T1 sequence (P40337 whole entry, other chains not shown, the tested form may be a part): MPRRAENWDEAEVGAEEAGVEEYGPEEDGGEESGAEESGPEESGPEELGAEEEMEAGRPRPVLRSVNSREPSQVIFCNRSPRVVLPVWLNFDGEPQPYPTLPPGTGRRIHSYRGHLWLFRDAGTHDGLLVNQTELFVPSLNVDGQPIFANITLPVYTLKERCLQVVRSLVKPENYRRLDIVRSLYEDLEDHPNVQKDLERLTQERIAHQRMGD
Method: Dose-response Degradation Assays. All dose-response degradation assays were performed on the genotype verified heterozygous BromoTag-Brd2 HEK293 cell line. Heterozygous BromoTag-Brd2 HEK293 cells were plated at a density of 5×10^5 cells per well of a six healthy plate a day before initiation of the titration experiment. PROTAC compounds were dissolved in DMSO at a concentration of 10 mM, from these stock concentrations, PROTAC compounds were diluted to appropriate concentrations using DMSO in the range of 10 μM-1 nM. […] Control compounds such as MZ1, cis-MZ1 were similarly dissolved in DMSO to the appropriate concentration. […] Cells were washed twice with PBS before being harvested.
Western Blotting. […] The membranes were blocked for 1 h prior to incubation with the primary antibodies using 5% Milk TBST. […] Following overnight incubation with the primary antibodies at 4° C., the membranes were incubated with secondary antibodies (Anti-rabbit, Abcam AB216773, 1:5000 or anti-mouse, Abcam AB216774, 1:5000) and hFAB™ Rhodamine Anti-Tubulin Antibody (Biorad, 12004165, 1:10000) for one h and then imaged with a Bio-Rad imager (LI-COR Biosciences). All western blots were analysed for band intensities using Image Lab from Bio-Rad (LI-COR, Biosciences). The data extracted from these blots were then plotted and analysed using Prism (v. 8.2.0, GraphPad).

[2] = test system: HEK293 cells; assay: CellTiter-Glo cell viability assay, HEK293; assay type: cell-based, human; conditions: up to 10 μM; 48 h

CC[C@@H](C(=O)OCCOCCOCCOCC(=O)N[C@H](C(=O)N1C[C@H](O)C[C@H]1C(=O)NCc1ccc(-c2scnc2C)cc1)C(C)(C)C)[C@@H]1N=C(c2ccc(Cl)cc2)c2c(sc(C)c2C)-n2c(C)nnc21 (single isomer, unassigned) [AGB1 (46)]
DC50 ([1]; 6 h, range over the two antibodies, listed as 46): 13 to 15 nM and < 15 nM
pDC50 ([1]; Ab: Brd4^BD2 L387A, single stereoisomers, 8-point 10 μM-1 nM, 6 h, mean (±S.E.) of two repeats): 7.8 ± 0.2
pDC50 ([1]; Ab: BromoTag-Brd2, single stereoisomers, 8-point 10 μM-1 nM, 6 h, mean (±S.E.) of two repeats): 7.9 ± 0.1
pDC50 ([1]; BromoTag'ed BRD2 (P25440), N-term tag, Table 6): 7.8
Dmax ([1]; HEK293, Ab: Brd4^BD2 L387A, single stereoisomers, 6 h): 99%
cytotoxicity [2]: lack of cytotoxicity
